Data from ChEMBL document CHEMBL4613308, “Screen of Unfocused Libraries Identified Compounds with Direct or Synergistic Antibacterial Activity” (ACS Med Chem Lett, 2020).
Converted amounts (≈) assume the structure as drawn.

Assays:
Escherichia coli [1] = test: Synergistic antibacterial activity against Escherichia coli CCUG in presence of 0.5 times MIC of colistin by microdilution broth method; assay type: functional
Escherichia coli [2] = test: Potentiation of colistin-induced antibacterial activity against Escherichia coli CCUG assessed as fold reduction in colistin MIC in by microdilution broth method relative to colistin MIC; assay type: functional
Klebsiella pneumoniae [3] = test: Antibacterial activity against Klebsiella pneumoniae ATCC 13833 assessed as bacterial growth inhibition by agar diffusion assay; assay type: functional
Pseudomonas aeruginosa [4] = test: Antibacterial activity against Pseudomonas aeruginosa ATCC 27853 assessed as bacterial growth inhibition by agar diffusion assay; assay type: functional
Acinetobacter baumannii [5] = test: Antibacterial activity against Acinetobacter baumannii ATCC 17978 assessed as bacterial growth inhibition by agar diffusion assay; assay type: functional
Klebsiella pneumoniae [6] = test: Synergistic antibacterial activity against Klebsiella pneumoniae ATCC 13833 in presence of 0.5 times MIC of colistin by microdilution broth method; assay type: functional
Escherichia coli [7] = test: Antibacterial activity against Escherichia coli CCUG assessed as bacterial growth inhibition by agar diffusion assay; assay type: functional
Klebsiella pneumoniae [8] = test: Potentiation of colistin-induced antibacterial activity against Klebsiella pneumoniae ATCC 13833 assessed as fold reduction in colistin MIC by microdilution broth method relative to colistin MIC; assay type: functional
Acinetobacter baumannii [9] = test: Potentiation of colistin-induced antibacterial activity against Acinetobacter baumannii ATCC 17978 assessed as fold reduction in colistin MIC by microdilution broth method relative to colistin MIC; assay type: functional
Acinetobacter baumannii [10] = test: Synergistic antibacterial activity against Acinetobacter baumannii ATCC 17978 in presence of 0.5 times MIC of colistin by microdilution broth method; assay type: functional
Acinetobacter baumannii [11] = test: Synergistic antibacterial activity against multidrug-resistant Acinetobacter baumannii N50 in presence of 2 ug/ml colistin by microdilution broth method; assay type: functional
HeLa = test: Cytotoxicity against human HeLa cells assessed as reduction in cell viability assay by CellTox-Green assay; assay type: cell-based
Klebsiella pneumoniae [12] = test: Synergistic antibacterial activity against colistin-resistant Klebsiella pneumoniae SI-004Bo clinical isolate in presence of 2 ug/ml colistin by microdilution broth method (reference value: 64 ug/ml); assay type: functional
Klebsiella pneumoniae [13] = test: Synergistic antibacterial activity against colistin-resistant Klebsiella pneumoniae SI-081R clinical isolate in presence of 2 ug/ml colistin by microdilution broth method (reference value: 256 ug/ml); assay type: functional
Pseudomonas aeruginosa [14] = test: Potentiation of colistin-induced antibacterial activity against Pseudomonas aeruginosa ATCC 27853 assessed as fold reduction in colistin MIC by microdilution broth method relative to colistin MIC; assay type: functional
Pseudomonas aeruginosa [15] = test: Synergistic antibacterial activity against Pseudomonas aeruginosa ATCC 27853 in presence of 0.5 times MIC of colistin by microdilution broth method; assay type: functional
Pseudomonas aeruginosa [16] = test: Synergistic antibacterial activity against Pseudomonas aeruginosa ATCC 27853 assessed as fractional inhibitory concentration index in presence of colistin by Checkerboard assay; assay type: functional
Acinetobacter baumannii [17] = test: Synergistic antibacterial activity against Acinetobacter baumannii ATCC 17978 assessed as fractional inhibitory concentration index in presence of colistin by Checkerboard assay; assay type: functional
Pseudomonas aeruginosa [18] = test: Antibacterial activity against multidrug-resistant Pseudomonas aeruginosa VR-143/97 clinical isolate assessed as bacterial growth inhibition by agar diffusion assay; assay type: functional
Acinetobacter baumannii [19] = test: Antibacterial activity against Acinetobacter baumannii AC-54/97 clinical isolate assessed as bacterial growth inhibition by agar diffusion assay; assay type: functional
Enterobacter cloacae [20] = test: Antibacterial activity against multidrug-resistant Enterobacter cloacae VA 417/02 clinical isolate assessed as bacterial growth inhibition by agar diffusion assay; assay type: functional
Streptococcus pyogenes = test: Antibacterial activity against Streptococcus pyogenes ATCC 12344 assessed as bacterial growth inhibition by agar diffusion assay; assay type: functional
Enterobacter cloacae [21] = test: Antibacterial activity against multidrug-resistant Enterobacter cloacae Z19 clinical isolate assessed as bacterial growth inhibition by agar diffusion assay; assay type: functional
Staphylococcus aureus = test: Antibacterial activity against Staphylococcus aureus ATCC 25923 assessed as bacterial growth inhibition by agar diffusion assay; assay type: functional
Bacillus spizizenii = test: Antibacterial activity against Bacillus subtilis ATCC 6633 assessed as bacterial growth inhibition by agar diffusion assay; assay type: functional
Enterococcus faecalis = test: Antibacterial activity against Enterococcus faecalis ATCC 29212 assessed as bacterial growth inhibition by agar diffusion assay; assay type: functional
Escherichia coli [22] = test: Antibacterial activity against multidrug-resistant Escherichia coli Z25 clinical isolate assessed as bacterial growth inhibition by agar diffusion assay; assay type: functional

SMILES | MIC (Escherichia coli [1]) [µg/mL] | log2FC (Escherichia coli [2]) | MIC (Klebsiella pneumoniae [3]) [µg/mL] | MIC (Pseudomonas aeruginosa [4]) [µg/mL] | MIC (Acinetobacter baumannii [5]) [µg/mL] | MIC (Klebsiella pneumoniae [6]) [µg/mL] | MIC (Escherichia coli [7]) [µg/mL] | log2FC (Klebsiella pneumoniae [8]) | log2FC (Acinetobacter baumannii [9]) | MIC (Acinetobacter baumannii [10]) [µg/mL] | MIC (Acinetobacter baumannii [11]) [µg/mL] | IC50 (HeLa) [µg/mL] | MIC (Klebsiella pneumoniae [12]) [µg/mL] | MIC (Klebsiella pneumoniae [13]) [µg/mL] | other results
CC(C)c1ccc2c(c1)c(O)c(C(C)C)c(=O)n2CC(C)(C)C | 32 | 4 | > 512 | > 512 | > 512 | 64 | > 512 | 3 | 4 | 32 |  |  |  |  | 
CCCCCc1cc(OC)cc(OCCCCCCCC(=O)NCCO)c1 | 4 | 7 | > 512 | > 512 | > 512 | 8 | > 512 | 6 | 7 | 4 | 8 | > 20 | > 64 | 18 | 
CCCCCc1cc(O)cc(OCCCCCCCCCCCC(=O)NCCO)c1 | 8 | 6 | > 512 | > 512 | > 512 | 8 | > 512 | 6 | 7 | 4 | 4 | 18 (≈ 42.7 µM) | > 64 | > 64 | log2FC (Pseudomonas aeruginosa [14]): 7; MIC (Pseudomonas aeruginosa [15]): 4 µg/mL; fractional inhibitory concentration index (FICI) (Pseudomonas aeruginosa [16]): 0.41; fractional inhibitory concentration index (FICI) (Acinetobacter baumannii [17]): 0.31
CC(C)(C)n1cc(C(=O)O)c(=O)c2cc(F)c(-c3cccnc3)cc21 |  |  | 0.25 (≈ 0.735 µM) | 4 (≈ 11.8 µM) | 0.5 (≈ 1.47 µM) |  | 2 (≈ 5.88 µM) |  |  |  |  |  |  |  | MIC (Pseudomonas aeruginosa [18]): 64 µg/mL (≈ 188 µM); MIC (Acinetobacter baumannii [19]): 64 µg/mL (≈ 188 µM); MIC (Enterobacter cloacae [20]): 0.5 µg/mL (≈ 1.47 µM); MIC (Streptococcus pyogenes): ≤ 0.12 µg/mL; MIC (Enterobacter cloacae [21]): 256 µg/mL (≈ 752 µM); MIC (Staphylococcus aureus): ≤ 0.12 µg/mL; MIC (Bacillus spizizenii): ≤ 0.12 µg/mL; MIC (Enterococcus faecalis): 0.5 µg/mL (≈ 1.47 µM); MIC (Escherichia coli [22]): 256 µg/mL (≈ 752 µM)
CCOC(=O)c1c(O)nc2c(C)cccc2c1O | 64 | 3 | > 512 | > 512 | > 512 | 16 | > 512 | 5 | 3 | 64 |  |  |  |  | 
